Here are results for 4 molecules from patent publication US20140341818A1, “SOLUBILIZED MAGNOLOL ANALOGS” (COLGATE-PALMOLIVE COMPANY, priority 2011, published 2014).

Data set [1] is classed as physicochemical. From the text:
The dimethyl isosorbide is capable of solubilizing up to 200 g per liter of neat propyl magnolol or isopropyl magnolol, up to 100 g per liter of isobutyl magnolol, or up to 50 g per liter of butyl magnolol. In certain embodiments, the amount of dimethyl isosorbide is at least 5 times the weight of the propyl magnolol or isopropyl magnolol in the composition. In certain embodiments, the amount of dimethyl isosorbide is at least 10 times the weight of isobutyl magnolol in the composition. In certain embodiments, the amount of dimethyl isosorbide is at least 20 times the weight of butyl magnolol in the composition.

Data set [2] in a line: Solubilizing isobutyl magnolol with other solubilizers. It counts as physicochemical. The source says:
It was surprising that dimethyl isosorbide was able to solubilize these analogs.

On to `CCCCc1ccc(O)c(-c2cc(CCCC)ccc2O)c1` [butyl magnolol, 5,5′-di-n-butylbiphenyl-2,2′-diol], for which the “amount of neat magnolol analog solubilized by dimethyl isosorbide” value in data set [1] is given as “up to 50 g per liter”.
Consider `CC(C)Cc1ccc(O)c(-c2cc(CC(C)C)ccc2O)c1` [isobutyl magnolol, 5,5′-di-isobutylbiphenyl-2,2′-diol], for which the ability to solubilize result in data set [2] (solubilizer C12-15 alkyl benzoate), in data set [2] (solubilizer PEG-7 glyceryl cocoate), in data set [2] (solubilizer PEG-8/SMDI copolymer), in data set [2] (solubilizer PPG-2 hydroxyethyl cocoamide), in data set [2] (solubilizer PPG-5 laureth-5 (Eumulgin ES)) and in data set [2] (solubilizer isopropyl myristate) was “not able to solubilize” in each case. Moreover, the ability to solubilize entry in data set [2] (solubilizer poloxamer 124) is “not able to solubilize”. Further, the “amount of neat magnolol analog solubilized by dimethyl isosorbide” value in data set [1] is given as “up to 100 g per liter”.
For the molecule `CC(C)c1ccc(O)c(-c2cc(C(C)C)ccc2O)c1` [isopropyl magnolol, 5,5′-di-isopropylbiphenyl-2,2′-diol], the “amount of neat magnolol analog solubilized by dimethyl isosorbide” value in data set [1] is given as “up to 200 g per liter”.
Still for that read-out and setting: as for `CCCc1ccc(O)c(-c2cc(CCC)ccc2O)c1` [propyl magnolol, 5,5′-di-n-propylbiphenyl-2,2′-diol], the entry is “up to 200 g per liter”.
